Laboratory results from patent publication US20260028365A1 (BIOGEN MA INC., priority 2022, published 2026).

Columns and labels:
Tyk2 = Tyk2 (Homo sapiens (Human), UniProt P29597); assay: pSTAT4 Cell Assay (MSD, NK92 cells); type: cell-based; settings: MSD
JH2 domain of human Tyk2 = JH2 domain of human Tyk2 (Homo sapiens (Human), UniProt P29597); assay: JH2 Biochemical Assay (TR-FRET probe displacement); type: binding; settings: JH2 domain of human Tyk2, TR-FRET probe displacement
JH2 domain of human Tyk2, sequence (P29597 575-876): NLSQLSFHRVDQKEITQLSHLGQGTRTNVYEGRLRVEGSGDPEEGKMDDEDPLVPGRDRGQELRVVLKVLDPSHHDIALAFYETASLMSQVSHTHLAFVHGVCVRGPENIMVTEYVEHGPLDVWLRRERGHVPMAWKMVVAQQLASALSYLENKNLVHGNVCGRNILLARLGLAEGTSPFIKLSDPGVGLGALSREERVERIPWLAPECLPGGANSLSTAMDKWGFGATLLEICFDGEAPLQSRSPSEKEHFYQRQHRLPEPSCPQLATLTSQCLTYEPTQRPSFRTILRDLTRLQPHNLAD

Tyk2, sequence (P29597 whole entry, the tested form may be a part): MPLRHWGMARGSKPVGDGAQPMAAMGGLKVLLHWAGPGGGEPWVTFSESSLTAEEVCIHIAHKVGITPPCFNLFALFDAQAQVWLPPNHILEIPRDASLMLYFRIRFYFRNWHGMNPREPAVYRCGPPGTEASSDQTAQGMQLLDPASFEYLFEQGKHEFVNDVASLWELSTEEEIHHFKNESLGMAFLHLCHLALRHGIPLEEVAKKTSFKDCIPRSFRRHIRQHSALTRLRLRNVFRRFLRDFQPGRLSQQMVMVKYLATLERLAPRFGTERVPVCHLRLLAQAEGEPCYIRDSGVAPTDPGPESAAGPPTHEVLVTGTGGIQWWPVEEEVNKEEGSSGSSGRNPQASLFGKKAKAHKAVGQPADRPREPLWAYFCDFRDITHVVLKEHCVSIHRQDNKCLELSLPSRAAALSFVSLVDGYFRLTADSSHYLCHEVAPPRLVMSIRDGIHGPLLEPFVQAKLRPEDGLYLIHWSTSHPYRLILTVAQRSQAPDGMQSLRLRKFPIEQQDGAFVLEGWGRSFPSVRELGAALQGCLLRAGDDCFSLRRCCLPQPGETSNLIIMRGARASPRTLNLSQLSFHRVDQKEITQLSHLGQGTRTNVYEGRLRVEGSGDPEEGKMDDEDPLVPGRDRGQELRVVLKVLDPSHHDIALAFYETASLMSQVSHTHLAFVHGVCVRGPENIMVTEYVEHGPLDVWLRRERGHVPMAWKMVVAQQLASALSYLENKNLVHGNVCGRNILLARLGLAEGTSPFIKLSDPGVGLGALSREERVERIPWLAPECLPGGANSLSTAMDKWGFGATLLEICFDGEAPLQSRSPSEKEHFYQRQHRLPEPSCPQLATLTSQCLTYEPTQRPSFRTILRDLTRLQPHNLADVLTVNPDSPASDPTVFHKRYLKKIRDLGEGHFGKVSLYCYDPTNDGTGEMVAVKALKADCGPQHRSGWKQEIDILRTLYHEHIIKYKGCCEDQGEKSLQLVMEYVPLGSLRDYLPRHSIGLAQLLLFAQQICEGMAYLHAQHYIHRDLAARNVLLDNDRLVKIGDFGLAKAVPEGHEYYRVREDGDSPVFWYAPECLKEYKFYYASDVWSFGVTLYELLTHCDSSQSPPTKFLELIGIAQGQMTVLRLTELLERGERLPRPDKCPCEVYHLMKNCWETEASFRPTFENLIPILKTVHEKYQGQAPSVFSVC

Row | Structure (SMILES) | IC50 (Tyk2) | IC50 (JH2 domain of human Tyk2)
1 | CC(=O)Nc1cc(Nc2cc(C)nc(C(C)(F)F)n2)c(-c2ncc(C#N)cc2F)cn1 [Example 632, N-(5-cyanO4′-((2-(1,1-difluoroethyl)-6-methylpyrimidin-4-yl)amino)-3-fluorO[2,3′-bipyridin]-6′-yl)acetamide] | ≥ 1000 nM | 10 to 100 nM
2 | CC(=O)Nc1cc(Nc2cc(C)nc(C(C)(F)F)n2)c(-c2ccc(F)c(C#N)n2)cn1 [Example 633, N-(6-cyanO4′-((2-(1,1-difluoroethyl)-6-methylpyrimidin-4-yl)amino)-5-fluorO[2,3′-bipyridin]-6′-yl)acetamide] | ≤ 10 nM | ≤ 10 nM
3 | COc1cccc(-c2cnc(NC(C)=O)cc2Nc2cc(C)nc(C(C)(F)F)n2)n1 [Example 635, N-(4′-((2-(1,1-difluoroethyl)-6-methylpyrimidin-4-yl)amino)-6-methoxy-[2,3′-bipyridin]-6′-yl)acetamide] | ≤ 10 nM | ≤ 10 nM
4 | COc1ccc(-c2cnc(NC(C)=O)cc2Nc2cc(C)nc(C(C)(F)F)n2)nc1OC [Example 637, N-(4′-((2-(1,1-difluoroethyl)-6-methylpyrimidin-4-yl)amino)-5,6-dimethoxy-[2,3′-bipyridin]-6′-yl)acetamide] | ≤ 10 nM | ≤ 10 nM
5 | CC(=O)Nc1cc(Nc2cc(C)nc(C(C)(F)F)n2)c(-c2cccc(C3CN(C)CCO3)n2)cn1 (centres unmarked) [Example 640, N-(4′-((2-(1,1-difluoroethyl)-6-methylpyrimidin-4-yl)amino)-6-(4-methylmorpholin-2-yl)-[2,3′-bipyridin]-6′-yl)acetamide] | ≤ 10 nM | ≤ 10 nM
6 | CC(=O)Nc1cc(Nc2cc(C)nc(C(C)(F)F)n2)c(-c2cccc(C3CCCCO3)n2)cn1 (centres unmarked) [Example 647, N-(4′-((2-(1,1-difluoroethyl)-6-methylpyrimidin-4-yl)amino)-6-(tetrahydro2H-pyran-2-yl)-[2,3′-bipyridin]-6′-yl)acetamide] | ≤ 10 nM | ≤ 10 nM
7 | CC(=O)Nc1cc(Nc2cc(C)nc(C(C)(F)F)n2)c(-c2ccc(CN3CCOCC3)cn2)cn1 [Example 649, N-(4′-((2-(1,1-difluoroethyl)-6-methylpyrimidin-4-yl)amino)-5-(morpholinomethyl)-[2,3′-bipyridin]-6′-yl)acetamide] | ≤ 10 nM | ≤ 10 nM
8 | CC(=O)Nc1cc(Nc2cc(C)nc(C(C)(F)F)n2)c(-c2cccc(CN3CCOCC3)n2)cn1 [Example 650, N-(4′-((2-(1,1-difluoroethyl)-6-methylpyrimidin-4-yl)amino)-6-(morpholinomethyl)-[2,3′-bipyridin]-6′-yl)acetamide] | ≤ 10 nM | ≤ 10 nM
9 | CC(=O)Nc1cc(Nc2cc(C)nc(C(C)(F)F)n2)c(-c2cccc(C(C)(C)C#N)n2)cn1 [Example 654, N-(6-(2-cyanopropan-2-yl)-4′-((2-(1,1-difluoroethyl)-6-methylpyrimidin-4-yl)amino)-[2,3′-bipyridin]-6′-yl)acetamide] | ≤ 10 nM | ≤ 10 nM
10 | COc1cnc(-c2cnc(NC(C)=O)cc2Nc2cc(C)nc(C(C)(F)F)n2)nc1 [Example 656, N-(4-((2-(1,1-difluoroethyl)-6-methylpyrimidin-4-yl)amino)-5-(5-methoxypyrimidin-2-yl)pyridin-2-yl)acetamide] | ≤ 10 nM | ≤ 10 nM
11 | CC(=O)Nc1cc(Nc2cc(C)nc(C(C)(F)F)n2)c(-c2nc(C)cc(C#N)n2)cn1 [Example 657, N-(5-(4-cyanO6-methylpyrimidin-2-yl)-4-((2-(1,1-difluoroethyl)-6-methylpyrimidin-4-yl)amino)pyridin-2-yl)acetamide] | 100 to 1000 nM | 10 to 100 nM
12 | CC(=O)Nc1cc(Nc2cc(C)nc(C(C)(F)F)n2)c(-c2cnc(COC(F)F)cn2)cn1 [Example 662, N-(4-((2-(1,1-difluoroethyl)-6-methylpyrimidin-4-yl)amino)-5-(5-((difluoromethoxy)methyl)pyrazin-2-yl)pyridin-2-yl)acetamide] | 10 to 100 nM | ≤ 10 nM
13 | COc1nc(-c2cnc(NC(C)=O)cc2Nc2cc(C)nc(C(C)(F)F)n2)ncc1C [Example 663, N-(4-((2-(1,1-difluoroethyl)-6-methylpyrimidin-4-yl)amino)-5-(4-methoxy-5-methylpyrimidin-2-yl)pyridin-2-yl)acetamide] | ≥ 1000 nM | 10 to 100 nM
14 | COCc1cc(-c2cnc(NC(C)=O)cc2Nc2cc(C)nc(C(C)(F)F)n2)ncn1 [Example 665, N-(4-((2-(1,1-difluoroethyl)-6-methylpyrimidin-4-yl)amino)-5-(6-(methoxymethyl)pyrimidin-4-yl)pyridin-2-yl)acetamide] | 10 to 100 nM | ≤ 10 nM
15 | CC(=O)Nc1cc(Nc2cc(C)nc(C(C)(F)F)n2)c(-c2nccc(C3CC3)n2)cn1 [Example 666, N-(5-(4-cyclopropylpyrimidin-2-yl)-4-((2-(1,1-difluoroethyl)-6-methylpyrimidin-4-yl)amino)pyridin-2-yl)acetamide] | 100 to 1000 nM | ≤ 10 nM
16 | CC(=O)Nc1cc(Nc2cc(C)nc(C(C)(F)F)n2)c(-c2cncc(C3CC3)n2)cn1 [Example 667, N-(5-(6-cyclopropylpyrazin-2-yl)-4-((2-(1,1-difluoroethyl)-6-methylpyrimidin-4-yl)amino)pyridin-2-yl)acetamide] | 10 to 100 nM | ≤ 10 nM

Row | Structure (SMILES) | IC50 (Tyk2) | IC50 (JH2 domain of human Tyk2)
17 | CC(=O)Nc1cc(Nc2cc(C)nc(C(C)(F)F)n2)c(-c2ncc(Cl)cn2)cn1 [Example 669, N-(5-(5-chloropyrimidin-2-yl)-4-((2-(1,1-difluoroethyl)-6-methylpyrimidin-4-yl)amino)pyridin-2-yl)acetamide] | 10 to 100 nM | ≤ 10 nM
18 | CC(=O)Nc1cc(Nc2cc(C)nc(C(C)(F)F)n2)c(-c2ncc(C(F)F)cn2)cn1 [Example 670, N-(4-((2-(1,1-difluoroethyl)-6-methylpyrimidin-4-yl)amino)-5-(5-(difluoromethyl)pyrimidin-2-yl)pyridin-2-yl)acetamide] | 10 to 100 nM | ≤ 10 nM
19 | CC(=O)Nc1cc(Nc2cc(C)nc(C(C)(F)F)n2)c(-c2nccc(C)n2)cn1 [Example 671, N-(4-((2-(1,1-difluoroethyl)-6-methylpyrimidin-4-yl)amino)-5-(4-methylpyrimidin-2-yl)pyridin-2-yl)acetamide] | 10 to 100 nM | ≤ 10 nM
20 | COCc1cnc(-c2cnc(NC(C)=O)cc2Nc2cc(C)nc(C(C)(F)F)n2)nc1 [Example 672, N-(4-((2-(1,1-difluoroethyl)-6-methylpyrimidin-4-yl)amino)-5-(5-(methoxymethyl)pyrimidin-2-yl)pyridin-2-yl)acetamide] | ≤ 10 nM | ≤ 10 nM
21 | CC(=O)Nc1cc(Nc2cc(C)nc(C(C)(F)F)n2)c(-c2ncc(F)c(C)n2)cn1 [Example 673, N-(4-((2-(1,1-difluoroethyl)-6-methylpyrimidin-4-yl)amino)-5-(5-fluorO4-methylpyrimidin-2-yl)pyridin-2-yl)acetamide] | 10 to 100 nM | 10 to 100 nM
22 | CC(=O)Nc1cc(Nc2cc(C)nc(C(C)(F)F)n2)c(-c2cncc(CN(C)C)n2)cn1 [Example 675, N-(4-((2-(1,1-difluoroethyl)-6-methylpyrimidin-4-yl)amino)-5-(6-((dimethylamino)methyl)pyrazin-2-yl)pyridin-2-yl)acetamide] | 100 to 1000 nM | ≤ 10 nM
23 | CC(=O)Nc1cc(Nc2cc(C)nc(C(C)(F)F)n2)c(-c2ccc3c(n2)CCC3=O)cn1 [Example 677, N-(4-((2-(1,1-difluoroethyl)-6-methylpyrimidin-4-yl)amino)-5-(5-oxO6,7-dihydrO5H-cyclopenta[b]pyridin-2-yl)pyridin-2-yl)acetamide] | ≤ 10 nM | ≤ 10 nM
24 | CC(=O)Nc1cc(Nc2cc(C)nc(C(C)(F)F)n2)c(-c2ccc3nccn3n2)cn1 [Example 680, N-(4-((2-(1,1-difluoroethyl)-6-methylpyrimidin-4-yl)amino)-5-(imidazo[1,2-b]pyridazin-6-yl)pyridin-2-yl)acetamide] | 10 to 100 nM | ≤ 10 nM
25 | CC(=O)Nc1cc(Nc2ccnc(C(C)(F)F)n2)c(-c2ncccn2)cn1 [Example 685, N-(4-((2-(1,1-difluoroethyl)pyrimidin-4-yl)amino)-5-(pyrimidin-2-yl)pyridin-2-yl)acetamide] | 10 to 100 nM | ≤ 10 nM
26 | COc1ncc(-c2cnc(NC(C)=O)cc2Nc2ccnc(C(C)(F)F)n2)nc1OC [Example 686, N-(4-((2-(1,1-difluoroethyl)pyrimidin-4-yl)amino)-5-(5,6-dimethoxypyrazin-2-yl)pyridin-2-yl)acetamide] | ≥ 1000 nM | 10 to 100 nM
27 | COc1cc(-c2cnc(NC(C)=O)cc2Nc2ccnc(C(C)(F)F)n2)nc(OC)n1 [Example 687, N-(4-((2-(1,1-difluoroethyl)pyrimidin-4-yl)amino)-5-(2,6-dimethoxypyrimidin-4-yl)pyridin-2-yl)acetamide] | 10 to 100 nM | ≤ 10 nM
28 | CC(=O)Nc1cc(Nc2ccnc(C(C)(F)F)n2)c(-c2cncc(CC#N)n2)cn1 [Example 688, N-(5-(6-(cyanomethyl)pyrazin-2-yl)-4-((2-(1,1-difluoroethyl)pyrimidin-4-yl)amino)pyridin-2-yl)acetamide] | 100 to 1000 nM | ≤ 10 nM
29 | CC(=O)Nc1cc(Nc2ccnc(C(C)(F)F)n2)c(-c2cncc(OC(F)F)n2)cn1 [Example 689, N-(4-((2-(1,1-difluoroethyl)pyrimidin-4-yl)amino)-5-(6-(difluoromethoxy)pyrazin-2-yl)pyridin-2-yl)acetamide] | ≥ 1000 nM | 10 to 100 nM
30 | CC(=O)Nc1cc(Nc2ccnc(C(C)(F)F)n2)c(-c2cncc(OC3COC3)n2)cn1 [Example 690, N-(4-((2-(1,1-difluoroethyl)pyrimidin-4-yl)amino)-5-(6-(oxetan-3-yloxy)pyrazin-2-yl)pyridin-2-yl)acetamide] | 10 to 100 nM | 10 to 100 nM
31 | COCCOc1cncc(-c2cnc(NC(C)=O)cc2Nc2ccnc(C(C)(F)F)n2)n1 [Example 691, N-(4-((2-(1,1-difluoroethyl)pyrimidin-4-yl)amino)-5-(6-(2-methoxyethoxy)pyrazin-2-yl)pyridin-2-yl)acetamide] | 100 to 1000 nM | 10 to 100 nM
